Patent US20190054110A1, “MODULATORS OF CCR9 FOR TREATING TUMOR RESISTANCE TO IMMUNE RESPONSES” (DEUTSCHES KREBSFORSCHUNGSZENTRUM STIFTUNG DES ÖFFENTLICHEN …, priority 2016, published 2019)

Key:
MCF7 cells = experiment: Chromium-release cytotoxicity assay, MCF7 cells lysed by survivin-specific T cells; format: cell-based, human; conditions: versus control / CCR9 knockdown
Experimental: FIG. 1: CCR9 knockdown sensitizes tumor cells to immune attack (A) MCF7 cells were transfected with the described siRNA sequences and harvested after 72 h for mRNA and protein estimation using RT-PCR (upper) and immunoblot (lower) analysis, respectively. GAPDH and beta-actin were used as controls for RNA and protein normalization, respectively. (B) Luc-CTL cytotoxicity assay with PBMC-derived CTLs and bi-specific Ab as effector population and MCF7 as target cells, which were transfected with individual (s1-s4) or pooled CCR9 siRNA sequences. PD-L1 and non-specific control siRNAs were used as positive and negative controls, respectively, for CTL-mediated cytotoxicity. (C, D) Cr-release assay showing % specific lysis of MCF7 cells by survivin-specific T cells at different ratios upon CCR9 knockdown (C) or overexpression (D). MCF7 cells were transfected with either CCR9 siRNA s1 (Δ), pooled siRNA sequences (◯), positive control PD-L1 (□), and non-specific control siRNA (▪) (C) or with pCMV6-AC-His control vector (▪) and pCMV6-AC-His-CCR9 expression construct (∘) (D) 72 h prior to the assay. […] Error bars denote ±SEM, and statistical significance was calculated using the unpaired, two-tailed Student's t-test. […]

CCR9+ tumor cells = experiment: Transwell migration assay of CCR9+ tumor cells toward CCL25; format: cell-based

In the case of pertussis toxin, the “MCF7 lysis by survivin-specific CTL” value (MCF7 cells) is reported as “did not elicit elevated tumor lysis” and the “migration of CCR9+ tumor cells toward CCL25” value (CCR9+ tumor cells) is reported as “inhibited”.
